The record followed here is patent US20120010186A1, “HETEROCYCLIC COMPOUNDS AS INHIBITORS OF STEAROYL-COENZYME A DELTA-9 DESATURASE” (MERCK FROSST CANADA LTD., priority 2009, published 2012).

This assay concerns the target T1, human SCD1 (hSCD-1) (Homo sapiens, UniProt O00767).
T1 construct: made in house; host or cells: baculovirus/Sf9
T1 sequence (O00767 1-359): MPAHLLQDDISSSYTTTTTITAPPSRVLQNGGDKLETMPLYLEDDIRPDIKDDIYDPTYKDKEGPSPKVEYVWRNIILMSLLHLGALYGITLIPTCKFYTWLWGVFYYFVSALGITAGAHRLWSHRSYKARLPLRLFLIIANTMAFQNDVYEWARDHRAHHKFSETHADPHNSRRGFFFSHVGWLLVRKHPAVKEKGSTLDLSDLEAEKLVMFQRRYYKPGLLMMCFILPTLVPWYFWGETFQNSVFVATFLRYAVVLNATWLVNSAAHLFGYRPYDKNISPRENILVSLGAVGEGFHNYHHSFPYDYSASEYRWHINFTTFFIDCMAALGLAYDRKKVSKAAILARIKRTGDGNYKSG
In words: SCD enzyme activity assay, reconstituted human SCD1 (hSCD-1). The assay is classed as biochemical. Here is the method: The potency of compounds of formula I against the stearoyl-CoA desaturase was determined by measuring the conversion of radiolabeled stearoyl-CoA to oleoyl-CoA using rat liver microsome or human SCD1 (hSCD-1) following previously published procedures with some modifications (Joshi, et al., J. Lipid Res., 18: 32-36 (1977); Talamo, et al., Anal. Biochem, 29: 300-304 (1969)). Liver microsome was prepared from male Wistar or Sprague Dawley rats on a high carbohydrate diet for 3 days (LabDiet #5803, Purina). The livers were homogenized (1:10 w/v) in a buffer containing 250 mM sucrose, 1 mM EDTA, 5 mM DTT and 50 mM Tris-HCl (pH 7.5). After a 100,000×g centrifugation for 60 min, the liver microsome pellet was suspended in a buffer containing 100 mM sodium phosphate, 20% glycerol, 2 mM DTT, and stored at −78° C. Human SCD1 desaturase system was reconstituted using human SCD1 from a baculovirus/Sf9 expression system, cytochrome B5 and cytochrome B5 reductase. Typically, test compound in 2 μL DMSO was incubated for 15 min at room temperature with 180 μL of the SCD enzyme in a buffer containing 100 mM Tris-HCl (pH 7.5), ATP (5 mM), Coenzyme-A (0.1 mM), Triton X-100 (0.5 mM) and NADH (2 mM). The reaction was initiated by the addition of 20 μL of [^3H]-stearoyl-CoA (final concentration=2 μM, radioactivity concentration=1 μCi/mL). After 10 min, the reaction mixture (80 μL) was mixed with a calcium chloride/charcoal aqueous suspension (100 μL charcoal (10% w/v) plus 25 μL CaCl2 (2N). After centrifugation to precipitate the radioactive fatty acid species, tritiated water released from 9,10-[^3H]-stearoyl-CoA by the SCD enzyme was quantified on a scintillation counter.

Structures are written as SMILES.

As a reminder, the IC50 is the midpoint of a concentration-inhibition curve. Molecule `O=C(O)Cn1nnc(-c2cnc(N3CC4CN(c5cc(F)ccc5Br)CC4C3)nc2)n1` (centres unmarked) yielded an IC50 of 77 nM.

In turn, `O=C(O)Cn1nnc(-c2cnc(N3CC4CN(c5cc(C(F)(F)F)ccc5Br)CC4C3)s2)n1` (centres unmarked) returned an IC50 of 14 nM.

Molecule `O=C(O)Cn1nnc(-c2cnc(N3CCC4(CCN(c5ccccc5Cl)C4)C3)s2)n1` (centres unmarked) showed an IC50 of 161 nM.

With `O=C(O)Cn1nnc(-c2cnc(N3CC4CN(c5cc(F)ccc5Cl)CC4C3)s2)n1` (centres unmarked), the IC50 was found to be 12 nM.

For the molecule `O=C(O)Cn1nnc(-c2cnc(N3CC4CN(c5cc(OC(F)(F)F)ccc5Cl)CC4C3)s2)n1` (centres unmarked), the half-inhibitory concentration (IC50) turned out to be 10 nM.

Molecule `O=C(O)Cn1nnc(-c2cnc(N3CCC4(CC3)CN(c3cc(F)ccc3Cl)C4)s2)n1` showed an IC50 of 39 nM.

Turning to `O=C(O)Cn1nnc(-c2cnc(N3CC4CN(c5cc(Cl)ccc5Cl)CC4C3)s2)n1` (centres unmarked), the IC50 worked out at 13 nM.

Molecule `O=C(O)Cn1nnc(-c2cnc(N3CC4CN(c5cc(Cl)cc(F)c5Cl)CC4C3)s2)n1` (centres unmarked) showed an IC50 of 13 nM.

In turn, `O=C(O)Cn1nnc(-c2cnc(N3CC4(CCN(c5cc(F)ccc5Cl)CC4)C3)s2)n1` registered an IC50 of 45 nM.

`O=C(O)Cn1nnc(-c2cc(N3CC4CN(c5cc(F)ccc5Cl)CC4C3)no2)n1` (centres unmarked) gave a half-inhibitory concentration (IC50) of 27 nM.

Regarding `O=C(O)Cn1nnc(-c2cnc(N3CC4(C3)CN(c3cc(F)ccc3Cl)C4)s2)n1`, 11 nM corresponded to half-maximal inhibition (IC50).
